Laboratory results from patent US20240150423A1, “GLP-1 ANALOGUE-MODIFIED DIMERS WITH DIFFERENT CONFIGURATIONS, PREPARATION METHOD THEREOF, AND APPLICATION THEREOF IN TREATMENT OF TYPE II DIABETES” (Nanjing Finepeptide Biopharmaceutical Co.,Ltd, priority 2019, published 2024).
Positions of bridges follow the written chain, without caps; N, C: chain ends. Non-standard residues stand in square brackets, D forms with d. Chains are numbered I, II in the order given. No end group written: not given here. bAib = not defined here; PEG = not defined here; Aib = CC(C)(N)C(=O)O; βAla = NCCC(=O)O

system: Normal Kunming (KM) mice; assay: multiple OGTT (mOGTT): hypoglycemic duration after a single administration; format: in vivo; settings: monomeric peptides, single injection at the same dose (1.126 nmol), subcutaneous
Source text: • 1. Methods: Normal Kunming (KM) mice (purchased from Guangdong Animal Center) were used for oral glucose tolerance test (OGTT) to obtain the hypoglycemic activity and durability of drug. […] The blood glucose meter and blood glucose test paper were from Bayer […]. The average blood glucose of each group was used as an evaluation standard: When the average blood glucose of experimental group was higher than that of the NaCl control group for two times, the measurement stopped and the hypoglycemic period compared to the blank control group was the effective duration. • 2. Results • 2.1 single OGTTs: after a single administration, the mice were orally administered glucose once and measured the blood glucose from the tail blood at 0, 10, 20, 40, 60 and 120 min. […] The duration of each monomer group was about 1⁄2-1⁄4 of the duration of its corresponding dimer group. […] Therefore, the 2G3 peptide was selected for treating type II diabetes (T2D) in vivo and subsequent experiments.

Row | Substance | Hypoglycemic [days]
1 | His-Ala-Glu-Gly-Thr-Phe-Thr-Cys-Asp-Val-Ser-Ser-Tyr-Leu-Glu-Gly-Gln-Ala-Ala-Lys[N-ϵ-(N-α-Palmitoyl-L-γ-glutamyl)]-Glu-Phe-Ile-Ala-Trp-Leu-Val-Arg-Gly-Arg-Gly-OH (HAEGTFTCDVSSYLEGQAAXEFIAWLVRGRG; palmitoyl-gamma-Glu on Lys; C-terminal acid; Sequence is synthesized; (20)..(20) Xaa is 26Lys[N-e-(N-a-palmitoyl-L-g-glutamyl)]; (31)..(31) C-terminal) [G8 series 56] | 1
2 | His-aAib-Glu-Gly-Thr-Phe-Thr-Cys-Asp-Val-Ser-Ser-Tyr-Leu-Glu-Gly-Gln-Ala-Ala-Lys-Glu-Phe-Ile-Ala-Trp-Leu-Val-Lys-aAib-Arg-NH2 (H[Aib]EGTFTCDVSSYLEGQAAKEFIAWLVK[Aib]R-NH2; N-terminus assumed; SMILES CC[C@H](C)[C@H](NC(=O)[C@H](Cc1ccccc1)NC(=O)[C@H](CCC(=O)O)NC(=O)[C@H](CCCCN)NC(=O)[C@H](C)NC(=O)[C@H](C)NC(=O)[C@H](CCC(N)=O)NC(=O)CNC(=O)[C@H](CCC(=O)O)NC(=O)[C@H](CC(C)C)NC(=O)[C@H](Cc1ccc(O)cc1)NC(=O)[C@H](CO)NC(=O)[C@H](CO)NC(=O)[C@@H](NC(=O)[C@H](CC(=O)O)NC(=O)[C@H](CS)NC(=O)[C@@H](NC(=O)[C@H](Cc1ccccc1)NC(=O)[C@@H](NC(=O)CNC(=O)[C@H](CCC(=O)O)NC(=O)C(C)(C)NC(=O)[C@@H](N)Cc1c[nH]cn1)[C@@H](C)O)[C@@H](C)O)C(C)C)C(=O)N[C@@H](C)C(=O)N[C@@H](Cc1c[nH]c2ccccc12)C(=O)N[C@@H](CC(C)C)C(=O)N[C@H](C(=O)N[C@@H](CCCCN)C(=O)NC(C)(C)C(=O)N[C@@H](CCCNC(=N)N)C(N)=O)C(C)C) [G8 series 65] | 2
3 | His-Ala-Glu-Gly-Thr-Phe-Thr-Ser-Asp-Val-Ser-Cys-Tyr-Leu-Glu-Gly-Gln-Ala-Ala-Lys[N-ϵ-(N-α-Palmitoyl-L-γ-glutamyl)]-Glu-Phe-Ile-Ala-Trp-Leu-Val-Lys[N-ϵ-(N-α-Palmitoyl-L-γ-glutamyl)]-Gly-Arg-Gly-NH2 (HAEGTFTSDVSCYLEGQAAXEFIAWLVXGRG; two palmitoyl-gamma-Glu on Lys; C-terminal amide; Sequence is synthesized; (20)..(20) Xaa is 26Lys[N-e-(N-a-palmitoyl-L-g-glutamyl)]; (28)..(28) Xaa is 26Lys[N-e-(N-a-palmitoyl-L-g-glutamyl)]; (31)..(31) N-terminal) [G5 series 41] | 3
4 | His-aAib-Glu-Gly-Thr-Phe-Thr-Ser-Asp-Val-Ser-Cys-Tyr-Leu-Glu-Gly-Gln-Ala-Ala-Lys-Glu-Phe-Ile-Ala-Trp-Leu-Val-Lys-aAib-Arg-NH2 (H[Aib]EGTFTSDVSCYLEGQAAKEFIAWLVK[Aib]R-NH2; also: disulfide-linked homodimer via Cys) [G7 series 53] | 3
5 | His-βAib-Glu-Gly-Thr-Phe-Thr-Ser-Asp-Val-Ser-Cys-Tyr-Leu-Glu-Gly-Gln-Ala-Ala-Lys[N-ϵ-(N-α-oleoyl-L-γ-glutamyl)]-Glu-Phe-Ile-Ala-Trp-Leu-Val-Arg-Gly-Arg-Gly-NH2 (HXEGTFTSDVSCYLEGQAAXEFIAWLVRGRG; not fully specified; beta-Aib; oleoyl-gamma-Glu on Lys; C-terminal amide; Sequence is synthesized; (2)..(2) Xaa is bAib; (20)..(20) Xaa is 26Lys[N-e-(N-a-oleoyl-L-g-glutamyl)]; (31)..(31) N-terminal) [G6 series 49] | 5
6 | His-aAib-Glu-Gly-Thr-Phe-Thr-Ser-Asp-Val-Cys-Ser-Tyr-Leu-Glu-Gly-Gln-Ala-Ala-Lys[N-ϵ-(N-α-oleoyl-L-γ-glutamyl)]-Glu-Phe-Ile-Ala-Trp-Leu-Val-Arg-Gly-Arg-Gly-NH2 (HXEGTFTSDVCSYLEGQAAXEFIAWLVRGRG; αAib; oleoyl-γ-glutamyl on Lys; C-terminal amide; Sequence is synthesized; (2)..(2) Xaa is aAib; (20)..(20) Xaa is 26Lys[N-e-(N-a-oleoyl-L-g-glutamyl)]; (31)..(31) N-terminal) [G2 series 13] | 7
7 | His-aAib-Glu-Gly-Thr-Phe-Thr-Ser-Asp-Val-Cys-Ser-Tyr-Leu-Glu-Gly-Gln-Ala-Ala-Lys[N-ϵ-(N-α-oleoyl)]-Glu-Phe-Ile-Ala-Trp-Leu-Val-Arg-Gly-Arg-Gly-NH2 (HXEGTFTSDVCSYLEGQAAXEFIAWLVRGRG; αAib; oleoyl on Lys; C-terminal amide; Sequence is synthesized; (2)..(2) Xaa is aAib; (20)..(20) Xaa is 26Lys[N-e-(N-a-oleoyl-L-g-glutamyl)]; (31)..(31) N-terminal) [G4 series 29] | 7
8 | His-Ala-Glu-Gly-Thr-Phe-Thr-Ser-Asp-Val-Ser-Cys-Tyr-Leu-Glu-Gly-Gln-Ala-Ala-Lys[N-ϵ-(N-α-oleoyl-L-γ-glutamyl)]-Glu-Phe-Ile-Ala-Trp-Leu-Val-Arg-Gly-Arg-Gly-OH (HAEGTFTSDVSCYLEGQAAXEFIAWLVRGRG; oleoyl-γ-glutamyl on Lys; C-terminal acid; Sequence is synthesized; (20)..(20) Xaa is 26Lys[N-e-(N-a-oleoyl-L-g-glutamyl)]; (31)..(31) C-terminal) [G3 series 21] | 4
9 | His-aAib-Glu-Gly-Thr-Phe-Thr-Cys-Asp-Val-Ser-Ser-Tyr-Leu-Glu-Gly-Gln-Ala-Ala-Lys[N-ϵ-(N-α-oleoyl-L-γ-glutamyl)]-Glu-Phe-Ile-Ala-Trp-Leu-Val-Arg-Gly-Arg-Gly-NH2 (HXEGTFTCDVSSYLEGQAAXEFIAWLVRGRG; Aib; oleoyl-gamma-Glu on Lys; C-terminal amide; Sequence is synthesized; (2)..(2) Xaa is aAib; (20)..(20) Xaa is 26Lys[N-e-(N-a-oleoyl-L-g-glutamyl)]; (31)..(31) N-terminal) [G8 series 62] | 5
10 | His-βAla-Glu-Gly-Thr-Phe-Thr-Ser-Asp-Val-Ser-Cys-Tyr-Leu-Glu-Gly-Gln-Ala-Ala-Lys-Glu-Phe-Ile-Ala-Trp-Leu-Val-Arg-βAla-Arg-NH2 (H[βAla]EGTFTSDVSCYLEGQAAKEFIAWLVR[βAla]R-NH2; also: disulfide-linked homodimer via Cys12) [G7 series 55] | 2

same assay, conditions: single injection at the same dose (1.126 nmol), subcutaneous

Row | Substance | Hypoglycemic duration [days]
11 | 2G6 series 49: disulfide-linked homodimer of monomer SEQ ID NO: 49 (HXEGTFTSDVSCYLEGQAAXEFIAWLVRGRG; disulfide-linked homodimer; Sequence is synthesized; (2)..(2) Xaa is bAib; (20)..(20) Xaa is 26Lys[N-e-(N-a-oleoyl-L-g-glutamyl)]; (31)..(31) N-terminal) | 17
12 | 2G8 series 56: disulfide-linked homodimer of monomer SEQ ID NO: 56 (HAEGTFTCDVSSYLEGQAAXEFIAWLVRGRG; disulfide-linked homodimer; Sequence is synthesized; (20)..(20) Xaa is 26Lys[N-e-(N-a-palmitoyl-L-g-glutamyl)]; (31)..(31) C-terminal) | 2
13 | 2G7 series 54: disulfide-linked homodimer of monomer SEQ ID NO: 54 (H[bAib]EGTFTSDVSCYLEGQAAKEFIAWLVR[bAib]R-NH2; reading uncertain; also: disulfide-linked homodimer, disulfide at 12, other end not in the chain, printed as His-βAib-Glu-Gly-Thr-Phe-Thr-Ser-Asp-Val-Ser-Cys-Tyr-Leu-Glu-Gly-Gln-Ala-Ala-Lys-Glu-Phe-Ile-Ala-Trp-Leu-Val-Arg-βAib-Arg-NH2) | 5
14 | 2G9 series 71: disulfide-linked homodimer of PEG-modified monomer SEQ ID NO: 71 (HAEGTFTSDVSCYLEGQAAKEFIAWLVRGR-{NH2-PEG}; reading uncertain; also: disulfide-linked homodimer) | 5
15 | 2G2 series 19: disulfide-linked homodimer of monomer SEQ ID NO: 19 (chain 1 H[βAla]EGTFTSDVCSYLEGQAAKEFIAWLVR[βAla]R; chain 2 H[βAla]EGTFTSDVCSYLEGQAAKEFIAWLVR[βAla]R; disulfide I:11-II:11 (inferred); not fully specified (C-terminus)) | 3
16 | 2G8 series 58: disulfide-linked homodimer of monomer SEQ ID NO: 58 (HAEGTFTCDVSSYLEGQAAXEFIAWLVRGRG; disulfide-linked homodimer; Sequence is synthesized; (20)..(20) Xaa is 26Lys[N-e-(N-a-oleoyl-L-g-glutamyl)]; (31)..(31) C-terminal) | 3
